In one assay the target is T1, JAK1 (Homo sapiens, UniProt P23458).
T1 construct: 5 μl of catalytic domain recombinant Kinase enzyme+Tyr peptide substrate (Invitrogen, CA); purchased Invitrogen
The experiment in a line: Z'-LYTE kinase assay JAK1. The class given is biochemical. In a few lines:
(§1)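 Z′-LYTE FRET, Tyr6 peptide, recombinant catalytic domain + ATP, 1 h RT, 1% DMSO final, duplicates; protease development 1 h RT; fluorescence read.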

The target of a further assay is T2, TYK2 (Homo sapiens, UniProt P29597).
T2 construct: 5 μl of catalytic domain recombinant Kinase enzyme+Tyr peptide substrate (Invitrogen, CA); purchased Invitrogen
T2 sequence (P29597 897-1176 limits assumed): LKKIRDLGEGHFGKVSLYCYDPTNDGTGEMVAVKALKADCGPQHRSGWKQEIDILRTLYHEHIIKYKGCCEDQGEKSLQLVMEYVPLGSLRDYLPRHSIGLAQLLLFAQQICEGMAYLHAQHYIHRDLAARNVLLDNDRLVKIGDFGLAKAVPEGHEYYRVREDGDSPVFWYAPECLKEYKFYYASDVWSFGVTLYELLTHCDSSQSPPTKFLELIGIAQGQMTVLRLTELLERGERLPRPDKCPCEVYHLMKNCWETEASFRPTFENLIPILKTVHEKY
Description: Z'-LYTE kinase assay TYK2. It counts as biochemical. Put shortly: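 IC50 derived by 4-parameter logistic fit of percent substrate phosphorylation relative to uninhibited wells. Tyr6 peptide phosphorylated by recombinant TYK2 catalytic domain for 1 h at room temperature (1% DMSO), cleaved by development protease 1 h, FRET emission ratio 445/520 nm.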

In assay [1] the test system is JAK1/3 signaling to STAT6 in Ramos B cells. The experiment in a line: IL4 stimulation of JAK1/3 signaling to STAT6 in Ramos B cells (pSTAT6 Y641, FACS). The class given is cell-based. Conditions: Homo sapiens; for inhibition at 0.2 µM: 0.2 uM compound, read-out: IL-4/STAT6 in Ramos Percent Inhibition at 0.2 uM; for inhibition at 1 µM: 1.0 uM compound, read-out: IL-4/STAT6 in Ramos Percent Inhibition at 1.0 uM. Put shortly: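 Phospho-STAT6 Y641 was measured by FACS using a PE-labelled antibody after fixation (2% paraformaldehyde) and methanol permeabilization. Before this, Ramos cells were exposed to compound for 1 h, then to 15 ng IL4 for 15 min.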

The target in the next assay is T3, JAK2 (Homo sapiens, UniProt O60674).
T3 construct: 5 μl of catalytic domain recombinant Kinase enzyme+Tyr peptide substrate (Invitrogen, CA); purchased Invitrogen
T3 sequence (O60674 849-1124 limits assumed): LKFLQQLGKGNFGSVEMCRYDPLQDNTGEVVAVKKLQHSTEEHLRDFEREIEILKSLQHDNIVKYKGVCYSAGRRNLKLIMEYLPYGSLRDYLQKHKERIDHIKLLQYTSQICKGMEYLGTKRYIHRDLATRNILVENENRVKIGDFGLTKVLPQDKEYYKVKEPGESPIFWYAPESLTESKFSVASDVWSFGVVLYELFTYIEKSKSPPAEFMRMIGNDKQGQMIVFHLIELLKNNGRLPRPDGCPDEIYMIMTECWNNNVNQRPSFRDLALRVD
Description: Z'-LYTE kinase assay JAK2. The class given is biochemical. Put shortly:
as §1

The next assay has as its target T4, JAK3 (Homo sapiens, UniProt P52333).
T4 construct: 5 μl of catalytic domain recombinant Kinase enzyme+Tyr peptide substrate (Invitrogen, CA); purchased Invitrogen
Description: Z'-LYTE kinase assay JAK3. It counts as biochemical. Put shortly:
as §1

For assay [2], the system named is JAK1/3 signaling to STAT5 in primary T cells. The experiment in a line: IL2 stimulation of JAK1/3 signaling to STAT5 in primary T cells (pSTAT5 Y694, FACS). Particulars: T-cell. It counts as cell-based. As to the method: IL2 Stimulation of JAK1/3 Signaling to STAT5 in Primary T Cells:
The effect of JAK inhibitors on cytokine signaling pathways utilizing JAK3 was determined using an IL2 stimulation assay. IL2 engages a receptor complex that contains the IL2 receptor alpha and beta subunits, and the common gamma chain, to initiate activation of JAK1 and JAK3 leading to phosphorylation of STAT5 at tyrosine position 694. Lymphocytes are isolated from heparinized whole blood over a ficoll gradient, then resuspended in tissue culture media containing 10% fetal calf serum at 10×10̂6 cells/ml. 100 μl aliquots are pre-treated for 1 hour with various concentrations of compound, and then stimulated for 12 minutes with 100 U/ml IL2. The signaling reaction is terminated by fixing in 2% paraformaldehyde for 10 minutes at room temperature. Fixed cells are then washed and permeablized by suspension in 50% methanol (in PBS) at −80° C. Following overnight incubation at 4° C., cells are washed and resuspended in PBS containing 0.5% bovine serum albumin containing CD3-APC and pSTAT5 Y694-PE conjugated antibodies. After 1 hour incubation, cells are washed and the extent of STAT5 phosphorlyation in T cells is measured by FACS analysis.

Structures are written as SMILES. Where only a bound is given, the exact number is not on record here.

T4 sequence (P52333 822-1111 limits assumed): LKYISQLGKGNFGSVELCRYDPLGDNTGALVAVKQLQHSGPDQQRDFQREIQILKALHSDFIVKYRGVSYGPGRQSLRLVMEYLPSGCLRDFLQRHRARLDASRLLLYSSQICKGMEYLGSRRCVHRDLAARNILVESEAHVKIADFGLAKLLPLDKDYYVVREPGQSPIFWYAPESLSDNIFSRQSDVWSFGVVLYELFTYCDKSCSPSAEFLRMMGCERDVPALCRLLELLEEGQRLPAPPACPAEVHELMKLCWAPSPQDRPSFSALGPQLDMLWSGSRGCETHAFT
T1 sequence (P23458 875-1153 limits assumed): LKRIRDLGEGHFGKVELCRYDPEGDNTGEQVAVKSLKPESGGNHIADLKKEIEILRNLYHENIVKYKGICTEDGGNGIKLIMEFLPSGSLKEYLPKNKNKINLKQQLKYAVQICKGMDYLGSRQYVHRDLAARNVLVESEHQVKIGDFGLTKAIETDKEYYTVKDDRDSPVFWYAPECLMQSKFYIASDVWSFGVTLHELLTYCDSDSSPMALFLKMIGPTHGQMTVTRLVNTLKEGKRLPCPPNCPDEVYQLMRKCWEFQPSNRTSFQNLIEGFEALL

Usually IC50 stands for the midpoint of a concentration-inhibition curve. Lower therefore signals greater potency. On to `N#CCC(=O)N1CCC(c2ccc(Nc3cc(NCc4ccccc4F)c(C(N)=O)cn3)cc2)CC1` [Example 117, 6-(4-(1-(2-cyanoacetyl)piperidin-4-yl)phenylamino)-4-(2-fluorobenzylamino)nicotinamide], for which the IC50 against JAK1 was 100 to 1000 nM; against TYK2 it was 100 to 1000 nM; on JAK2, 100 to 1000 nM; against JAK3 it was 1 to 10 nM. Besides, the inhibition at 0.2 µM in assay [1] turned out to be 43%. Further, in assay [1], the inhibition at 1 µM stood at 67%.
Turning to `CC(=O)N1CCN(c2ccc(Nc3cc(NCc4cccs4)c(C(N)=O)cn3)cc2)CC1` [Example 122, 6-(4-(4-acetylpiperazin-1-yl)phenylamino)-4-(thiophen-2-ylmethylamino)nicotinamide], the 50% inhibitory concentration (IC50) against JAK1 lay in the range of 100 to 1000 nM; against TYK2, 10 to 100 nM; against JAK2, 100 to 1000 nM; at JAK3, 1 to 10 nM. In assay [1], the inhibition at 0.2 µM was 34%. Besides, in assay [1], the inhibition at 1 µM stood at 57%.
With `NC(=O)c1cnc(Nc2cccc(OCCN3CCOCC3)c2)cc1NCc1cccc(F)c1` [Example 228], the IC50 at JAK1 was 100 to 1000 nM; at TYK2, more than 1000 nM; at JAK2, 100 to 1000 nM; at JAK3, 1 to 10 nM. The inhibition at 0.2 µM in assay [1] is 24%. Moreover, in assay [1], the inhibition at 1 µM turned out to be 48%.
Take `CC(=O)N1CCN(c2ccc(Nc3cc(NCc4cccnc4)c(C(N)=O)cn3)cc2)CC1` [Example 233]: the IC50 against JAK1 lay within 100 to 1000 nM; against TYK2 it was 100 to 1000 nM; at JAK2, 100 to 1000 nM; on JAK3, 1 to 10 nM. In assay [1], the inhibition at 0.2 µM was 17%. For the same molecule, the inhibition at 1 µM in assay [1] worked out at 33%.
For `CC(=O)N1CCN(c2ccc(Nc3cc(NCC4CCCC4)c(C(N)=O)cn3)cc2)CC1` [Example 245, 6-(4-(4-acetylpiperazin-1-yl)phenylamino)-4-(cyclopentylmethylamino)nicotinamide], the IC50 at JAK1 was 100 to 1000 nM; at TYK2, 10 to 100 nM; against JAK2, 10 to 100 nM; against JAK3 it was 1 to 10 nM. The inhibition at 0.2 µM in assay [1] came to 14%. In addition, the inhibition at 1 µM in assay [1] amounted to 38%.
`CNC(=O)c1cccc(Nc2cc(NCc3ccccc3)c(C(N)=O)cn2)c1` [Example 246, 4-(benzylamino)-6-(3-(methylcarbamoyl)phenylamino)nicotinamide]: the IC50 against JAK1 was 100 to 1000 nM; against TYK2, more than 1000 nM; against JAK2, 100 to 1000 nM; at JAK3, 10 to 100 nM. The inhibition at 0.2 µM in assay [1] is 6%. Further, the inhibition at 1 µM in assay [1] came out at 11%.
With `CN(C)C(=O)c1cccc(Nc2cc(NCc3ccccc3)c(C(N)=O)cn2)c1` [Example 247, 4-(benzylamino)-6-(3-(dimethylcarbamoyl)phenylamino)nicotinamide], the IC50 was 100 to 1000 nM against JAK1, 100 to 1000 nM against TYK2, 100 to 1000 nM against JAK2 and 10 to 100 nM on JAK3. In addition, the inhibition at 0.2 µM in assay [1] turned out to be 6%. For the same molecule, the inhibition at 1 µM in assay [1] came out at 24%.
For the molecule `CN(C)C(=O)c1ccc(Nc2cc(NCc3ccccc3)c(C(N)=O)cn2)cc1` [Example 248, 4-(benzylamino)-6-(4-(dimethylcarbamoyl)phenylamino)nicotinamide], the IC50 against JAK1 was in the range of 100 to 1000 nM; on TYK2, 100 to 1000 nM; at JAK2 it was 100 to 1000 nM; at JAK3, 1 to 10 nM. Moreover, the inhibition at 0.2 µM in assay [1] is 24%. Besides, the inhibition at 1 µM in assay [1] is 50%.
Take `NC(=O)c1cnc(Nc2ccc(N3CCOCC3)c(Cl)c2)cc1NCc1ccccc1` [Example 251, 4-(benzylamino)-6-(3-chloro-4-morpholinophenylamino)nicotinamide]: the IC50 on JAK1 was more than 1000 nM; at TYK2, more than 1000 nM; at JAK2, 100 to 1000 nM; at JAK3, 10 to 100 nM. For the same molecule, the inhibition at 0.2 µM in assay [1] was found to be 17%. Besides, the inhibition at 1 µM in assay [1] turned out to be 51%.
With `CC(=O)N1CCN(c2ccc(Nc3cc(N[C@H]4CCc5ccccc54)c(C(N)=O)cn3)cc2)CC1` [Example 255, (S)-6-(4-(4-acetylpiperazin-1-yl)phenylamino)-4-(2,3-dihydro-1H-inden-1-ylamino)nicotinamide], the IC50 was more than 1000 nM at JAK1, 100 to 1000 nM at TYK2, 100 to 1000 nM on JAK2 and 10 to 100 nM at JAK3. The inhibition at 0.2 µM in assay [1] came out at 11%. In addition, in assay [1], the inhibition at 1 µM was found to be 18%.
With `CC(=O)N1CCN(c2ccc(Nc3cc(NCc4cccc(Cl)c4)c(C(N)=O)cn3)cc2)CC1` [Example 257, 6-(4-(4-acetylpiperazin-1-yl)phenylamino)-4-(3-chlorobenzylamino)nicotinamide], the concentration for half-maximal inhibition (IC50) at JAK1 was in the range of 100 to 1000 nM; against TYK2 it was 100 to 1000 nM; against JAK2 it was 10 to 100 nM; on JAK3 it was 1 to 10 nM. The inhibition at 0.2 µM in assay [1] worked out at 34%. Besides, in assay [1], the inhibition at 1 µM was determined as 65%.
Turning to `CC(=O)N1CCN(c2ccc(Nc3cc(NCc4ccccc4F)c(C(N)=O)cn3)cc2)CC1` [Example 258, 6-(4-(4-acetylpiperazin-1-yl)phenylamino)-4-(2-fluorobenzylamino)nicotinamide], the half-inhibitory concentration (IC50) lay in the range of 100 to 1000 nM at JAK1, 100 to 1000 nM against TYK2, 10 to 100 nM on JAK2 and 1 to 10 nM against JAK3. Moreover, the inhibition at 0.2 µM in assay [1] was found to be 39%. For the same molecule, the inhibition at 1 µM in assay [1] was 63%.
For `CC(=O)N1CC(c2ccc(Nc3cc(NCc4cccc5ccsc45)c(C(N)=O)cn3)cc2)C1` [Example 333, 6-(4-(1-acetylazetidin-3-yl)phenylamino)-4-(benzo[b]thiophen-7-ylmethylamino)nicotinamide], the inhibition at 0.2 µM in assay [2] (0.2 uM compound, read-out: IL-2/STAT5 Percent Inhibition at 0.2 uM) is 35%. Moreover, the inhibition at 1 µM in assay [2] (1.0 μM compound, read-out: IL-2/STAT5 Percent Inhibition at 1.0 μM) is 84%. Moreover, the IC50 at JAK1 lay in the range of 100 to 1000 nM; on JAK2, 10 to 100 nM; against JAK3, 1 to 10 nM.
For `NC(=O)c1cnc(Nc2cccc(OCC(=O)N3CCOCC3)c2)cc1NCc1ccccc1` [Example 430, 4-(benzylamino)-6-(3-(2-morpholino-2-oxoethoxy)phenylamino)nicotinamide], the IC50 on JAK1 is 100 to 1000 nM; against TYK2 it was 100 to 1000 nM; at JAK2 it was 100 to 1000 nM; at JAK3, 1 to 10 nM. Also, in assay [1], the inhibition at 0.2 µM is 15%. Further, in assay [1], the inhibition at 1 µM is 36%.
Turning to `NC(=O)c1cnc(Nc2ccc(CN3CCOCC3)cc2)cc1NCc1ccccc1` [Example 431, 4-(benzylamino)-6-(4-(morpholinomethyl)phenylamino)nicotinamide], the half-maximal inhibitory concentration (IC50) on JAK1 is more than 1000 nM; against TYK2, more than 1000 nM; against JAK2 it was 100 to 1000 nM; against JAK3, 1 to 10 nM. Also, in assay [1], the inhibition at 0.2 µM was found to be 7%. Further, the inhibition at 1 µM in assay [1] is 24%.
On to `COCCOc1ccc(Nc2cc(NCc3ccccc3)c(C(N)=O)cn2)cc1` [Example 432, 4-(benzylamino)-6-(4-(2-methoxyethoxyl)phenylamino)nicotinamide], for which the IC50 against JAK1 is more than 1000 nM; on TYK2, more than 1000 nM; against JAK2 it was 100 to 1000 nM; on JAK3, 10 to 100 nM. Besides, the inhibition at 0.2 µM in assay [1] amounted to 16%. Further, the inhibition at 1 µM in assay [1] worked out at 17%.
Consider `COCCOc1cccc(Nc2cc(NCc3ccccc3)c(C(N)=O)cn2)c1` [Example 433, -(benzylamino)-6-(3-(2-methoxyethoxyl)phenylamino)nicotinamide], for which the IC50 is 100 to 1000 nM against JAK1, more than 1000 nM against TYK2, 100 to 1000 nM at JAK2 and 10 to 100 nM against JAK3. Moreover, the inhibition at 0.2 µM in assay [1] amounted to 18%. For the same molecule, in assay [1], the inhibition at 1 µM stood at 27%.

Values taken from patent US20150353495A1 (PORTOLA PHARMACEUTICALS, INC., priority 2010, published 2015).
